According to PubChem BioAssay (NCI):
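A five-concentration, 48-hour dose response in 96-well plates underlies each endpoint, interpolated linearly between surrounding concentrations. GI50 marks 50% less growth. At the TGI there is no net growth.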

Experiments:
Experiment in all cases: NCI tumour cell line growth inhibition, 48 h
COLO 205 colon = tested on: COLO 205 colon
SR leukemia = tested on: SR leukemia
ACHN renal = tested on: ACHN renal
HCT-116 colon = tested on: HCT-116 colon
T-47D breast = tested on: T-47D breast
DU-145 prostate = tested on: DU-145 prostate
XF 498 CNS = tested on: XF 498 CNS
DLD-1 colon = tested on: DLD-1 colon
P388 leukemia = tested on: P388 leukemia
SNB-78 CNS = tested on: SNB-78 CNS
KM20L2 colon = tested on: KM20L2 colon
DMS 273 small cell lung = tested on: DMS 273 small cell lung
HOP-18 NSCLC = tested on: HOP-18 NSCLC

| Compound | GI50 (COLO 205 colon) [µM] | TGI (COLO 205 colon) [µM] | GI50 (SR leukemia) [µM] | TGI (SR leukemia) [µM] | GI50 (ACHN renal) [µM] | TGI (ACHN renal) [µM] | GI50 (HCT-116 colon) [µM] | TGI (HCT-116 colon) [µM] | GI50 (T-47D breast) [µM] | TGI (T-47D breast) [µM] | GI50 (DU-145 prostate) [µM] | TGI (DU-145 prostate) [µM] | TGI (XF 498 CNS) [µM] | TGI (DLD-1 colon) [µM] | TGI (P388 leukemia) [µM] | TGI (SNB-78 CNS) [µM] | TGI (KM20L2 colon) [µM] | TGI (DMS 273 small cell lung) [µM] | TGI (HOP-18 NSCLC) [µM] | GI50 (HOP-18 NSCLC) [µM] |
| --- | --- | --- | --- | --- | --- | --- | --- | --- | --- | --- | --- | --- | --- | --- | --- | --- | --- | --- | --- | --- |
| CCCCCCCCCCCCCC[n+]1ccc(C)cc1 | 1.22 | 2.67 | 0.581 | 2.67 | 3.23 | 10.9 | 0.403 | 2.01 | 0.831 | 10.6 | 0.608 | 1.83 |  |  |  |  |  |  |  |  |
| CC(C)c1ccccc1SCc1cc(=O)cc(CSc2ccccc2C(C)C)o1 |  | > 100 |  | > 100 |  | > 100 |  |  |  | > 100 |  | 55.4 |  |  |  |  |  |  |  |  |
| C=C1C(=O)OC2CC(C)C3C4OC4C(O)C3(C)C(O)C12 (stereo not drawn) |  | 51.6 |  |  |  |  |  | 55.6 |  |  |  |  | 47.4 | 87.8 | 43.7 | 61.6 | 42.8 | 67.2 | 72.4 |  |
| CC12CCC(CC1)C(C)(C)O2 |  | 99.6 |  |  |  |  | 12.6 | 81.3 |  |  |  |  | 5.51 | 103 | 55.7 | 261 | 116 | 18.3 | 88.5 | 16.7 |
| O=C1/C(=C/c2ccc(O)cc2)COc2ccc(O)c(O)c21 |  |  | 1.1 | > 100 | 1.99 | 4.72 | 1.76 | 3.41 | 3.31 | > 100 | 2.19 | 5.69 |  |  |  |  |  |  |  |  |
| CSc1nc(N)c2c(-c3ccccc3)c3c(nc2n1)CCCC3 |  | > 100 |  | > 100 |  | > 100 |  | > 100 |  | > 100 |  | > 100 |  |  |  |  |  |  |  |  |
